# Where two headings read alike, the source gives them in different places.
# Tests used:
# Assay in all cases: MIC, broth microdilution (CLSI), substance alone or ATB combined with compound at 4 or 8 μg/mL
# ECO 190317 = format: cell-based, E. coli; settings: for MIC: Escherichia coli
# Procedure, shortened: (§1)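 Broth microdilution; ca-MHB; 5·10^5 CFU/mL; 35° C, 16-20 h; compound alone or fixed 4/8 μg/mL with antibiotic series; endpoint = no visible growth.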
# ECO UFR39 = format: cell-based, E. coli; settings: for MIC: Escherichia coli
# Procedure, shortened: as §1
# KPN 6299 = format: cell-based, K. pneumoniae; settings: for MIC: Klebsiella pneumoniae
# Procedure, shortened: as §1
# KPN BAA-1898 = format: cell-based, K. pneumoniae; settings: for MIC: Klebsiella pneumoniae, BAA1898
# Procedure, shortened: as §1
# KPN UFR42 = format: cell-based, K. pneumoniae; settings: for MIC: Klebsiella pneumoniae
# Procedure, shortened: as §1
# ECL P99 = format: cell-based, E. cloacae; settings: ECL P99
# Procedure, shortened: as §1
smiles,measurement,setting,value
"C=CC1=C(C(=O)O)N2C(=O)[C@@H](NC(=O)/C(=N\OCC(=O)O)c3csc(N)n3)[C@H]2SC1 [FIX, Cefixime, reference compound]",MIC ATB combined with Example 1 @8 μg/ml,"ECO 190317; ECO 190317, with Example 1 @8 μg/ml",<0.031 µg/mL
same,MIC ATB combined with Example 1 @8 μg/ml,"ECO 190317; ECO 190317, with Example 1 at 8 μg/ml",<0.031 µg/mL
same,MIC ATB combined with Example 7 @8 μgml,"ECO 190317; ECO 190317, with Example 7 at 8 μg/ml",<0.031 µg/mL
same,MIC ATB combined with Example 9 @4 μg/ml,"ECO 190317; ECO 190317, with Example 9 @4 μg/ml",<0.031 µg/mL
same,MIC ATB combined with Example 9 @4 μg/ml,"ECO 190317; ECO 190317, with Example 9 at 4 μg/ml",<0.031 µg/mL
same,MIC ATB combined with Example 11 @8 μg/ml,"ECO 190317; ECO 190317, with Example 11 at 8 μg/ml",<0.031 µg/mL
same,MIC ATB combined with Example 12 @8 μg/ml,"ECO 190317; ECO 190317, with Example 12 at 8 μg/ml",<0.031 µg/mL
same,MIC ATB combined with Example 13 @8 μg/ml,"ECO 190317; ECO 190317, with Example 13 at 8 μg/ml",<0.031 µg/mL
same,MIC ATB combined with Example 14 @8 μg/ml,"ECO 190317; ECO 190317, with Example 14 at 8 μg/ml",<0.031 µg/mL
same,MIC ATB combined with Example 15 @4 μgml,"ECO 190317; ECO 190317, with Example 15 at 4 μg/ml",<0.031 µg/mL
same,MIC ATB combined with Example 16 @4 μg/ml,"ECO 190317; ECO 190317, with Example 16 at 4 μg/ml",<0.031 µg/mL
same,MIC,ECO 190317,> 128 µg/mL
same,MIC,"ECO 190317; ECO 190317, antibiotic alone, read-out: MIC ATB alone",256 µg/mL
same,MIC ATB combined with Example 1 @8 μg/ml,"ECO UFR39; ECO UFR39, with Example 1 @8 μg/ml",>32 µg/mL
same,MIC ATB combined with Example 1 @8 μg/ml,"ECO UFR39; ECO UFR39, with Example 1 at 8 μg/ml",>32 µg/mL
same,MIC ATB combined with Example 7 @8 μgml,"ECO UFR39; ECO UFR39, with Example 7 at 8 μg/ml",<0.031 µg/mL
same,MIC ATB combined with Example 9 @4 μg/ml,"ECO UFR39; ECO UFR39, with Example 9 @4 μg/ml",<0.031 µg/mL
same,MIC ATB combined with Example 9 @4 μg/ml,"ECO UFR39; ECO UFR39, with Example 9 at 4 μg/ml",<0.031 µg/mL
same,MIC ATB combined with Example 11 @8 μg/ml,"ECO UFR39; ECO UFR39, with Example 11 at 8 μg/ml",<0.031 µg/mL
same,MIC ATB combined with Example 12 @8 μg/ml,"ECO UFR39; ECO UFR39, with Example 12 at 8 μg/ml",<0.031 µg/mL
same,MIC ATB combined with Example 13 @8 μg/ml,"ECO UFR39; ECO UFR39, with Example 13 at 8 μg/ml",<0.031 µg/mL
same,MIC ATB combined with Example 14 @8 μg/ml,"ECO UFR39; ECO UFR39, with Example 14 at 8 μg/ml",<0.031 µg/mL
same,MIC ATB combined with Example 15 @4 μgml,"ECO UFR39; ECO UFR39, with Example 15 at 4 μg/ml",<0.031 µg/mL
same,MIC ATB combined with Example 16 @4 μg/ml,"ECO UFR39; ECO UFR39, with Example 16 at 4 μg/ml",<0.031 µg/mL
same,MIC,ECO UFR39,> 128 µg/mL
same,MIC,"ECO UFR39; ECO UFR39, antibiotic alone, read-out: MIC ATB alone",> 512 µg/mL
same,MIC,"KPN 6299; antibiotic alone, read-out: MIC ATB alone",16 µg/mL
same,MIC,"KPN 6299; substance alone, read-out: MIC",16 µg/mL
same,MIC ATB combined with Example 1 @8 μg/ml,KPN 6299; with Example 1 @8 μg/ml,0.063 µg/mL
same,MIC ATB combined with Example 1 @8 μg/ml,KPN 6299; with Example 1 at 8 μg/ml,0.063 µg/mL
same,MIC ATB combined with Example 7 @8 μgml,KPN 6299; with Example 7 at 8 μg/ml,0.063 µg/mL
same,MIC ATB combined with Example 9 @4 μg/ml,KPN 6299; with Example 9 @4 μg/ml,<=0.031 μg/mL
same,MIC ATB combined with Example 9 @4 μg/ml,KPN 6299; with Example 9 at 4 μg/ml,<=0.031 μg/mL
same,MIC ATB combined with Example 11 @8 μg/ml,KPN 6299; with Example 11 at 8 μg/ml,<0.031 µg/mL
same,MIC ATB combined with Example 12 @8 μg/ml,KPN 6299; with Example 12 at 8 μg/ml,<0.031 µg/mL
same,MIC ATB combined with Example 13 @8 μg/ml,KPN 6299; with Example 13 at 8 μg/ml,<=0.031 μg/mL
same,MIC ATB combined with Example 14 @8 μg/ml,KPN 6299; with Example 14 at 8 μg/ml,<0.031 µg/mL
same,MIC ATB combined with Example 15 @4 μgml,KPN 6299; with Example 15 at 4 μg/ml,<0.031 µg/mL
same,MIC ATB combined with Example 16 @4 μg/ml,KPN 6299; with Example 16 at 4 μg/ml,<0.031 µg/mL
same,MIC ATB combined with Example 1 @8 μg/ml,"KPN BAA-1898; KPN BAA-1898, with Example 1 @8 μg/ml",0.25 µg/mL
same,MIC ATB combined with Example 1 @8 μg/ml,"KPN BAA-1898; KPN BAA-1898, with Example 1 at 8 μg/ml",0.25 µg/mL
same,MIC ATB combined with Example 7 @8 μgml,"KPN BAA-1898; KPN BAA-1898, with Example 7 at 8 μg/ml",0.25 µg/mL
same,MIC ATB combined with Example 9 @4 μg/ml,"KPN BAA-1898; KPN BAA-1898, with Example 9 @4 μg/ml",<0.031 µg/mL
same,MIC ATB combined with Example 9 @4 μg/ml,"KPN BAA-1898; KPN BAA-1898, with Example 9 at 4 μg/ml",<0.031 µg/mL
same,MIC ATB combined with Example 11 @8 μg/ml,"KPN BAA-1898; KPN BAA-1898, with Example 11 at 8 μg/ml",<0.031 µg/mL
same,MIC ATB combined with Example 12 @8 μg/ml,"KPN BAA-1898; KPN BAA-1898, with Example 12 at 8 μg/ml",<0.031 µg/mL
same,MIC ATB combined with Example 13 @8 μg/ml,"KPN BAA-1898; KPN BAA-1898, with Example 13 at 8 μg/ml",0.5 µg/mL
same,MIC ATB combined with Example 14 @8 μg/ml,"KPN BAA-1898; KPN BAA-1898, with Example 14 at 8 μg/ml",<0.031 µg/mL
same,MIC ATB combined with Example 15 @4 μgml,"KPN BAA-1898; KPN BAA-1898, with Example 15 at 4 μg/ml",<0.031 µg/mL
same,MIC ATB combined with Example 16 @4 μg/ml,"KPN BAA-1898; KPN BAA-1898, with Example 16 at 4 μg/ml",<0.031 µg/mL
same,MIC,KPN BAA-1898,> 128 µg/mL
same,MIC,"KPN BAA-1898; KPN BAA-1898, antibiotic alone, read-out: MIC ATB alone",> 512 µg/mL
same,MIC ATB combined with Example 1 @8 μg/ml,"KPN UFR42; KPN UFR42, with Example 1 @8 μg/ml",>32 µg/mL
same,MIC ATB combined with Example 1 @8 μg/ml,"KPN UFR42; KPN UFR42, with Example 1 at 8 μg/ml",>32 µg/mL
same,MIC ATB combined with Example 7 @8 μgml,"KPN UFR42; KPN UFR42, with Example 7 at 8 μg/ml",>32 µg/mL
same,MIC ATB combined with Example 9 @4 μg/ml,"KPN UFR42; KPN UFR42, with Example 9 @4 μg/ml",>32 µg/mL
same,MIC ATB combined with Example 9 @4 μg/ml,"KPN UFR42; KPN UFR42, with Example 9 at 4 μg/ml",>32 µg/mL
same,MIC ATB combined with Example 11 @8 μg/ml,"KPN UFR42; KPN UFR42, with Example 11 at 8 μg/ml",<0.031 µg/mL
same,MIC ATB combined with Example 12 @8 μg/ml,"KPN UFR42; KPN UFR42, with Example 12 at 8 μg/ml",<0.031 µg/mL
same,MIC ATB combined with Example 13 @8 μg/ml,"KPN UFR42; KPN UFR42, with Example 13 at 8 μg/ml",>32 µg/mL
same,MIC ATB combined with Example 14 @8 μg/ml,"KPN UFR42; KPN UFR42, with Example 14 at 8 μg/ml",<0.031 µg/mL
same,MIC ATB combined with Example 15 @4 μgml,"KPN UFR42; KPN UFR42, with Example 15 at 4 μg/ml",<0.031 µg/mL
same,MIC ATB combined with Example 16 @4 μg/ml,"KPN UFR42; KPN UFR42, with Example 16 at 4 μg/ml",<0.031 µg/mL
same,MIC,KPN UFR42,> 128 µg/mL
same,MIC,"KPN UFR42; KPN UFR42, antibiotic alone, read-out: MIC ATB alone",> 256 µg/mL
same,MIC ATB combined with Example 1 @8 μg/ml,ECL P99; with Example 1 @8 μg/ml,0.063 µg/mL
same,MIC ATB combined with Example 1 @8 μg/ml,ECL P99; with Example 1 at 8 μg/ml,0.063 µg/mL
same,MIC ATB combined with Example 7 @8 μgml,ECL P99; with Example 7 at 8 μg/ml,16 µg/mL
same,MIC ATB combined with Example 9 @4 μg/ml,ECL P99; with Example 9 @4 μg/ml,<0.031 µg/mL

# — US20200024278A1, “COMPOSITION COMPRISING ANTIBIOTIC COMPOUND AND AN HETEROCYCLIC COMPOUND AND THEIR USE IN PREVENTING OR TREATING BACTERIAL INFECTIONS” (MUTABILIS, priority 2016, published 2020)
